Measured values: patent publication US11117883B2 (Ariad Pharmaceuticals, Inc., priority 2016, dated 2021)

Assays:
Test in all cases: c-Kit assay: Ba/F3 KIT mutant viability (Cell Titer-Glo, 72 hours)
Assay type in all cases: cell-based
[1] = molecular target: T1, BAF3 FL KIT EX11DEL (Homo sapiens, UniProt P10721, cells depend on it, form not given); settings: viability after 72 hours
T1 construct: "BAF3 FL KIT EX11DEL"
Method: (§1) KIT cDNAs were synthesized by GenScript and cloned into the pLVX-IRES-Puro vector (Clontech). Viral particles were produced by transfecting pLVX-IRES-puro vectors containing KIT mutant genes into HEK293 cells (Invitrogen) using the Trans-Lentiviral ORF Packaging Kit (Thermo Scientific). 48 hours post-transfection, virus-containing supernatants were harvested and incubated for another 48-72 hours with parental Ba/F3 cells (DSMZ) in the presence of 10 ng/mL […] (R&D Systems). Transduced Ba/F3 cells were then selected by IL-3 withdrawal and puromycin (0.5-1 μg/mL, Invitrogen).
(§2) Cell lines (i.e., EX11DEL, EX11DEL/D816H, EX11DEL/T670I, and EX11DEL/V654A) were plated into 384 well plates using RPMI 1640 supplemented with 10% FBS at densities that produced linear growth and incubated at 37° C. in 5% (v/v) CO2. Cells were treated with eight concentrations of compound over a 4-fold dilution (10 μM to 0.61 nM) and viability was assessed using Cell Titer-Glo assay (Promega) after 72 hours. Data were plotted as percent viability relative to vehicle-treated cells. Dose-responses curves were generated and used to calculate IC50 values.

[2] = molecular target: T2, BAF3 FL KIT EX11DEL/D816H (Homo sapiens, UniProt P10721, D816H, cells depend on it, form not given); settings: viability after 72 hours
T2 construct: "BAF3 FL KIT EX11DEL/ D816H"
T2 sequence (P10721 with tags, fused parts or gaps DEL557-558/D816H, form open): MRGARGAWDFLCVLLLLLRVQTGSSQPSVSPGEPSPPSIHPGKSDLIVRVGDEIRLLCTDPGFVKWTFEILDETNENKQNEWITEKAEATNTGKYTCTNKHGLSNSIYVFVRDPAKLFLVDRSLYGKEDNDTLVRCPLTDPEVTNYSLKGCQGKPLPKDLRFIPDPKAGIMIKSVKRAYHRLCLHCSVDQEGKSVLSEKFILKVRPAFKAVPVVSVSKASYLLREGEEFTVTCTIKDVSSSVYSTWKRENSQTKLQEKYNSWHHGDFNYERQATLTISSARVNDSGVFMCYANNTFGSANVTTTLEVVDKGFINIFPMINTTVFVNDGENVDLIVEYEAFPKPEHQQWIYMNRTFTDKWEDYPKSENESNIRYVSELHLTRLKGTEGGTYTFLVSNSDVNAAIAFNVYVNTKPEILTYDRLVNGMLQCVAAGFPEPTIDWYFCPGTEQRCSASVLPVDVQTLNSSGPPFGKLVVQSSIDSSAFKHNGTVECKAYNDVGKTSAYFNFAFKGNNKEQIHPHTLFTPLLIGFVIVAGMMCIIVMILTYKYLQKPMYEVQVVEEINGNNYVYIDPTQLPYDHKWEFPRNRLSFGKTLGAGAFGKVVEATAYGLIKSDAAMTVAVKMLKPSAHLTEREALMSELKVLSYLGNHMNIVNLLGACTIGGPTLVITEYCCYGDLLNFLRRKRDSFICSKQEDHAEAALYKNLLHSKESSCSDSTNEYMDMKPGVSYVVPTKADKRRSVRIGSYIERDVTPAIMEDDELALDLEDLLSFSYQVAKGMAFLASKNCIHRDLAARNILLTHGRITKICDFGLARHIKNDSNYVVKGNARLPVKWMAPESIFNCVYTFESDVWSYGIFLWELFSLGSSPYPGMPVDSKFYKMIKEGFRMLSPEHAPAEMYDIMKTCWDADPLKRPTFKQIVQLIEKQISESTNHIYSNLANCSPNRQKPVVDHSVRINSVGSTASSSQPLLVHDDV
Method: as §1, §2

[3] = molecular target: T3, BAF3 FL KIT EX11DEL/V654A (Homo sapiens, UniProt P10721, V654A, cells depend on it, form not given); settings: viability after 72 hours
T3 construct: "BAF3 FL KIT EX11DEL/ V654A"
T3 sequence (P10721 with tags, fused parts or gaps DEL557-558/V654A, form open): as the sequence (P10721 with tags, fused parts or gaps DEL557-558/D816H, form open) above, with V652A, H814D counted along it
Method: as §1, §2

[4] = molecular target: T4, BAF3 FL KIT EX11DEL/T6701 (Homo sapiens, UniProt P10721, T670I, cells depend on it, form not given); settings: EX11DEL/T6701, viability after 72 hours
T4 construct: "BAF3 FL KIT EX11DEL/ T6701"
T4 sequence (P10721 with tags, fused parts or gaps DEL557-558/T670I, form open): as the sequence (P10721 with tags, fused parts or gaps DEL557-558/D816H, form open) above, with T668I, H814D counted along it
Method: as §1, §2

T1 sequence (P10721 with tags, fused parts or gaps DEL557-558): as the sequence (P10721 with tags, fused parts or gaps DEL557-558/D816H, form open) above, with H814D counted along it

| SMILES | GI50 [1] | GI50 [2] | GI50 [3] | GI50 [4] |
| --- | --- | --- | --- | --- |
| Cc1ccc(NC(=O)c2cc(C(F)(F)F)ccn2)cc1C#Cc1ccc2c(c1)ncn2-c1cnn(CCN(C)C)c1 [Compound I-41, N-(3-((1-(1-(2-(dimethylamino)ethyl)-1H-pyrazol-4-yl)-1H-benzo[d]imidazol-5-yl)ethynyl)-4-methylphenyl)-4-(trifluoromethyl)picolinamide] | < 10 nM | 100 to 10000 nM | 50 to 100 nM | 10 to 50 nM |
| Cc1ccc(NC(=O)c2cc(C(F)(F)F)ccn2)cc1C#Cc1ccc2c(c1)ncn2-c1cnn(C)c1 [Compound I-44, N-(4-methyl-3-((1-(1-methyl-1H-pyrazol-4-yl)-1H-benzo[d]imidazol-5-yl)ethynyl)phenyl)-4-(trifluoromethyl)picolinamide] | < 10 nM | 10 to 50 nM | 10 to 50 nM | 10 to 50 nM |
| CNC(=O)Cn1cnc2cc(C#Cc3cc(C(=O)Nc4cc(C(F)(F)F)ccn4)ccc3C)ccc21 [Compound I-1, 4-Methyl-3-((1-(2-(methylamino)-2-oxoethyl)-1H-benzo[d]imidazol-5-yl)ethynyl)-N-(4-(trifluoromethyl)pyridin-2-yl)benzamide] | < 10 nM | 100 to 10000 nM | 100 to 10000 nM | 100 to 10000 nM |
| Cc1ccc(C(=O)Nc2ccc(N3CCN(C)CC3)c(C(F)(F)F)c2)cc1C#Cc1ccc2c(c1)ncn2C [Compound I-22, 4-methyl-3-((1-methyl-1H-benzo[d]imidazol-5-yl)ethynyl)-N-(4-(4-methylpiperazin-1-yl)-3-(trifluoromethyl)phenyl)benzamide] | 100 to 10000 nM | 100 to 10000 nM | 100 to 10000 nM | 100 to 10000 nM |
| Cc1ccc(C(=O)Nc2cc(C(F)(F)F)ccn2)cc1C#Cc1ccc2c(c1)ncn2CCN(C)C [Compound I-3, 3-((1-(2-(dimethylamino)ethyl)-1H-benzo[d]imidazol-5-yl)ethynyl)-4-methyl-N-(4-(trifluoromethyl)pyridin-2-yl)benzamide] | 50 to 100 nM | 100 to 10000 nM | 100 to 10000 nM | 100 to 10000 nM |
| Cc1ccc(C(=O)Nc2cc(C(F)(F)F)ccn2)cc1C#Cc1ccc2c(c1)ncn2Cc1cccnc1 [Compound I-12, 4-methyl-3-((1-(pyridin-3-ylmethyl)-1H-benzo[d]imidazol-5-yl)ethynyl)-N-(4-(trifluoromethyl)pyridin-2-yl)benzamide] | 10 to 50 nM | 100 to 10000 nM | 100 to 10000 nM | 100 to 10000 nM |
| Cc1ccc(C(=O)Nc2cc(C(F)(F)F)ccn2)cc1C#Cc1ccc2c(c1)ncn2-c1cnn(C2CCOCC2)c1 [Compound I-33, 4-methyl-3-((1-(1-(tetrahydro-2H-pyran-4-yl)-1H-pyrazol-4-yl)-1H-benzo[d]imidazol-5-yl)ethynyl)-N-(4-(trifluoromethyl)pyridin-2-yl)benzamide] | < 10 nM | 10 to 50 nM | 10 to 50 nM | < 10 nM |
| Cc1ccc(C(=O)Nc2cc(C(F)(F)F)ccn2)cc1C#Cc1ccc2c(c1)ncn2CCCN(C)C [Compound I-6, 3-((1-(3-(dimethylamino)propyl)-1H-benzo[d]imidazol-5-yl)ethynyl)-4-methyl-N-(4-(trifluoromethyl)pyridin-2-yl)benzamide] | 10 to 50 nM | 100 to 10000 nM | 100 to 10000 nM | 50 to 100 nM |
| Cc1ccc(C(=O)Nc2cc(C(F)(F)F)ccn2)cc1C#Cc1ccc2c(c1)ncn2C [Compound I-8, 4-methyl-3-((1-methyl-1H-benzo[d]imidazol-5-yl)ethynyl)-N-(4-(trifluoromethyl)pyridin-2-yl)benzamide] | 10 to 50 nM | 50 to 100 nM | 10 to 50 nM | 10 to 50 nM |
| Cc1ccc(C(=O)Nc2cc(C(F)(F)F)ccn2)cc1C#Cc1ccc2nc(N)[nH]c2c1 [Compound I-10, 3-((2-amino-1H-benzo[d]imidazol-6-yl)ethynyl)-4-methyl-N-(4-(trifluoromethyl)pyridin-2-yl)benzamide] | 10 to 50 nM | 100 to 10000 nM | 100 to 10000 nM | 100 to 10000 nM |
